Patent US20250043299A1, “POINT MUTATIONS THAT BOOST AROMATIC AMINO ACID PRODUCTION AND CO2 ASSIMILATION IN PLANTS” (Wisconsin Alumni Research Foundation, priority 2021, published 2025)
“And” between values parts separate entries of the source, which are not always exact repeats. Equal entries are not always repeated.

Tests used:
DHS1^WT = target: T1, DHS1^WT (Arabidopsis thaliana, UniProt P29976); assay: DHS enzyme assay (colorimetric), recombinant DHS1^WT; type: biochemical; settings: recombinant enzyme; read-out: IC50 of effector molecule on DHS1^WT
T1 construct: without the predicted plastid transit peptide (amino acid residues; 49-525, 34-507, and 52-527, respectively); made in house; host or cells: E. coli Rosetta-2
T1 sequence (P29976 49-525): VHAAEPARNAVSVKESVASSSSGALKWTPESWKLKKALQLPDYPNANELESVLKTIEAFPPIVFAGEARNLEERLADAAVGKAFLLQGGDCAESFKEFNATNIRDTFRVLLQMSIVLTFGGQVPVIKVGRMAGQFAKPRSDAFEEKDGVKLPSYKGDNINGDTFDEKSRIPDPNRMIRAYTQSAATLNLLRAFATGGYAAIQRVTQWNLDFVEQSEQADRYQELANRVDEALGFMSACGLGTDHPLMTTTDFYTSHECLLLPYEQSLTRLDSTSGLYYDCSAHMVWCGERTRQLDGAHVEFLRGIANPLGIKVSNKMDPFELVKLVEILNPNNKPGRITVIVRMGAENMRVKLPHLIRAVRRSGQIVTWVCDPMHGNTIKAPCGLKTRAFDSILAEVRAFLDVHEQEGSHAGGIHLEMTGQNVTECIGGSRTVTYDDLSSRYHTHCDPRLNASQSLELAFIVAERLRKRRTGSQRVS
Experimental: (§1) To generate recombinant DHS proteins the pET28a vectors carrying the A. thaliana DHS1 (AtDHS1), AtDHS2, or AtDHS3 WT sequence without the predicted plastid transit peptide (amino acid residues; 49-525, 34-507, and 52-527, respectively) were expressed in E. coli Rosetta-2 cells and purified using Ni-affinity chromatography, exactly as was conducted previously (9). To generate DHS proteins with individual sota mutations via site-directed mutagenesis, these pET28a plasmid templates were diluted by 500-fold, mixed with 0.04 U/μL Phusion DNA polymerase (Thermo Scientific), 0.2 mM deoxynucleoside triphosphates (dNTPs), 1× Phusion reaction buffer (Thermo Scientific), and 0.5 μM forward and reverse mutagenesis primers (Table 10). The PCR reaction was run using the following protocol: 98° C. for 30 s followed by 20 cycles of 10 s at 98° C., 20 s at 70° C., 4.5 min at 72° C. with a final extension at 72° C. for 10 min. The PCR products were purified using a QIAquick Gel Extraction Kit (QIAGEN), treated with FastDigest DpnI (Thermo Scientific) to digest methylated plasmid template DNA for 20 min at 37° C., and transformed into E. coli cells. The mutagenized pET28a plasmids were sequenced to confirm that no errors were introduced during the mutagenesis process.
The DHS enzyme assays were conducted using the colorimetric method that we recently described (9). Briefly, the enzyme solution (7.7 μl) containing 50 mM Hepes (pH 7.4) was preincubated with an effector molecule(s) at room temperature for 15 min. For assays using recombinant protein and enzyme fractions isolated from plant leaves, 0.01 to 0.1 μg and approximately 50 μg of proteins were used, respectively. After adding 0.5 μl of 0.1 M dithiothreitol, the samples were further incubated at room temperature for 15 min. During these incubations, the substrate solution containing 50 mM Hepes (pH 7.4), 2 mM MnCl2, 4 mM E4P, and 4 mM PEP at final concentration was preheated at 37° C. The enzyme reaction was started by adding 6.8 μl of the substrate solution, then incubated at 37° C. for 30 min, and terminated by adding 30 μl of 0.6 M trichloroacetic acid. After a brief centrifugation, 5 μl of 200 mM NaIO4 (sodium meta-periodate) in 9 N H3PO4 was added to oxidize the enzymatic product and to incubate at 25° C. for 20 min. To stop the oxidation reaction, 20 μl of 0.75 M NaAsO2 (sodium arsenite), which was dissolved in 0.5 M Na2SO4 and 0.05 M H2SO4, was added and immediately mixed. After 5 min of incubation at room temperature, one-third of the sample solution was transferred to a new tube to be mixed with 50 μl of 40 mM thiobarbituric acid and incubated at 99° C. for 15 min in a thermal cycler. The mixture was added to 600 μl of cyclohexanone in eight-strip solvent-resistant plastic tubes, mixed vigorously, and centrifuged at 4500 g for 3 min to separate water- and cyclohexanone-based layers for the extraction off the developed pink chromophore. The absorbance of the pink supernatant was read at 549 nm with the microplate reader (Infinite 200 PRO, TECAN) to calculate DAHP production with the molar extinction coefficient at 549 nm (ε=549 nm) of 4.5×10^4 M^−1 cm^−1. Reaction mixtures with boiled enzymes were run in parallel and used as negative controls to estimate the background signal.

[1] = target: T2, Arabidopsis thaliana DHS2 (AtDHS2), wild type (DHS2^WT), SEQ ID NO:2 (Arabidopsis thaliana, UniProt Q00218); assay: DHS enzyme assay with effector, Arabidopsis DHS2 WT; type: biochemical; settings: 4 mM E4P, 4 mM PEP, pH 7.4, 37° C.
T2 construct: without the predicted plastid transit peptide (amino acid residues; 49-525, 34-507, and 52-527, respectively); made in house; host or cells: E. coli Rosetta-2
T2 sequence (Q00218 34-507): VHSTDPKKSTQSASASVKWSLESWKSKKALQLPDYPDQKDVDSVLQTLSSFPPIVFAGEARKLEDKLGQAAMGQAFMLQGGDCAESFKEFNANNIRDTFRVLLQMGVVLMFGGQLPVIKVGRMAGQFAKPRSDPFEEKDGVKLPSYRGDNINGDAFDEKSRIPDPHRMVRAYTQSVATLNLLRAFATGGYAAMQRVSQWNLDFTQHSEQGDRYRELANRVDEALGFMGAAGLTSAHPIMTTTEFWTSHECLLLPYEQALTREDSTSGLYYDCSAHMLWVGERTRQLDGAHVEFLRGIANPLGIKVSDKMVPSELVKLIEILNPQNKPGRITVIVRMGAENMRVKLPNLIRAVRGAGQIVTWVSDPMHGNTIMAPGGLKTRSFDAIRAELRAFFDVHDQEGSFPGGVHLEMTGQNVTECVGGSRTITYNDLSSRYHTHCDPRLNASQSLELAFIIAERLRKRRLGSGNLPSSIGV
Experimental: as §1, with “To” for “To generate recombinant DHS proteins the pET28a vectors carrying the A. thaliana DHS1 (AtDHS1), AtDHS2, or AtDHS3 WT sequence without the predicted plastid transit peptide (amino acid residues; 49-525, 34-507, and 52-527, respectively) were expressed in E. coli Rosetta-2 cells and purified using Ni-affinity chromatography, exactly as was conducted previously (9). To”
(§2) The DHS enzyme assays were conducted using the colorimetric method that we recently described (9). Briefly, the enzyme solution (7.7 μl) containing 50 mM Hepes (pH 7.4) was preincubated with an effector molecule(s) at room temperature for 15 min. For assays using recombinant protein and enzyme fractions isolated from plant leaves, 0.01 to 0.1 μg and approximately 50 μg of proteins were used, respectively. […]

DHS3^H1 = assay: DHS enzyme assay, recombinant DHS3^H1; type: biochemical, Arabidopsis thaliana
Experimental: as §1, with “To” for “To generate recombinant DHS proteins the pET28a vectors carrying the A. thaliana DHS1 (AtDHS1), AtDHS2, or AtDHS3 WT sequence without the predicted plastid transit peptide (amino acid residues; 49-525, 34-507, and 52-527, respectively) were expressed in E. coli Rosetta-2 cells and purified using Ni-affinity chromatography, exactly as was conducted previously (9). To”
The DHS enzyme assays were conducted using the colorimetric method that we recently described (9). Briefly, the enzyme solution (7.7 μl) containing 50 mM Hepes (pH 7.4) was preincubated with an effector molecule(s) at room temperature for 15 min. For assays using recombinant protein and enzyme fractions isolated from plant leaves, 0.01 to 0.1 μg and approximately 50 μg of proteins were used, respectively. After adding 0.5 μl of 0.1 M dithiothreitol, the samples were further incubated at room temperature for 15 min. During these incubations, the substrate solution containing 50 mM Hepes (pH 7.4), 2 mM MnCl2, 4 mM E4P, and 4 mM PEP at final concentration was preheated at 37° C. The enzyme reaction was started by adding 6.8 μl of the substrate solution, then incubated at 37° C. for 30 min, and terminated by adding 30 μl of 0.6 M trichloroacetic acid. After a brief centrifugation, 5 μl of 200 mM NaIO4 (sodium meta-periodate) in 9 N H3PO4 was added to oxidize the enzymatic product and to incubate at 25° C. for 20 min. To stop the oxidation reaction, 20 μl of 0.75 M NaAsO2 (sodium arsenite), which was dissolved in 0.5 M Na2SO4 and 0.05 M H2SO4, was added and immediately mixed. […]

DHS3^WT = assay: DHS enzyme assay, recombinant DHS3^WT; type: biochemical, Arabidopsis thaliana; settings: read-out: IC50 of effector molecule on DHS3^WT
Experimental: as §1, with “To” for “To generate recombinant DHS proteins the pET28a vectors carrying the A. thaliana DHS1 (AtDHS1), AtDHS2, or AtDHS3 WT sequence without the predicted plastid transit peptide (amino acid residues; 49-525, 34-507, and 52-527, respectively) were expressed in E. coli Rosetta-2 cells and purified using Ni-affinity chromatography, exactly as was conducted previously (9). To”
as §2

all DHS^WT isoforms = assay: DHS enzyme assay, summary over all DHS^WT isoforms; type: biochemical, Arabidopsis thaliana; settings: for inhibition of all DHS^WT isoforms: FIG. 2D
Experimental: as §1
The DHS enzyme assays were conducted using the colorimetric method that we recently described (9). Briefly, the enzyme solution (7.7 μl) containing 50 mM Hepes (pH 7.4) was preincubated with an effector molecule(s) at room temperature for 15 min. For assays using recombinant protein and enzyme fractions isolated from plant leaves, 0.01 to 0.1 μg and approximately 50 μg of proteins were used, respectively. After adding 0.5 μl of 0.1 M dithiothreitol, the samples were further incubated at room temperature for 15 min. […] The absorbance of the pink supernatant was read at 549 nm with the microplate reader (Infinite 200 PRO, TECAN) to calculate DAHP production with the molar extinction coefficient at 549 nm (ε=549 nm) of 4.5×10^4 M^−1 cm^−1. […]

O=C(O)C(=O)Cc1c[nH]c2ccccc12 [IPA, indole-3-pyruvate]
IC50 (DHS1^WT): 241 µM
IC50 [1]: 58 µM and 58.3 µM

O=C(O)Cc1cc(O)ccc1O [HGA, homogentisate]
IC50 (DHS1^WT): 253 µM
IC50 (DHS3^H1; read-out: IC50 of effector molecule on DHS3^H1): 405 µM
IC50 (DHS3^WT): 102 µM
inhibition of all DHS^WT isoforms (all DHS^WT isoforms): effectively inhibited
IC50 (all DHS^WT isoforms; range over the three isoforms): 75 to 250 µM

O=C(O)C(=O)Cc1ccc(O)cc1 [HPP, 4-Hydroxyphenylpyruvate]
IC50 [1]: 48.4 µM
IC50 (DHS3^WT): 516 µM
inhibition of all DHS^WT isoforms (all DHS^WT isoforms): effectively inhibited

N[C@@H](Cc1c[nH]c2ccccc12)C(=O)O [Trp, tryptophan]
IC50 of effector molecule on DHS3^H1 (DHS3^H1): Not inhibited
